Columns and labels:
[1] = test system: Streptococcus intermedius; assay: Antimicrobial activity against Streptococcus intermedius ATCC 27335 by agar dilution method in presence of 5% laked sheep blood; assay type: functional
Parvimonas micra = assay: Antimicrobial activity against Parvimonas micra VPI 5464-1 by agar dilution method in presence of 5% laked sheep blood; assay type: functional
Lacticaseibacillus casei = assay: Antimicrobial activity against Lactobacillus casei subsp. casei JCM 1134 by agar dilution method in presence of 5% laked sheep blood; assay type: functional
[2] = Antimicrobial activity against Parabacteroides distasonis ATCC 8503 by agar dilution method in presence of 5% laked sheep blood; assay type: functional
[3] = test system: Staphylococcus saccharolyticus; assay: Antimicrobial activity against Staphylococcus saccharolyticus ATCC 14953 by agar dilution method in presence of 5% laked sheep blood; assay type: functional
Bacteroides fragilis [4] = assay: Antimicrobial activity against carbapenemase-producing Bacteroides fragilis GAI 30144 by agar dilution method in presence of 5% laked sheep blood; assay type: functional
Prevotella denticola = assay: Antimicrobial activity against Prevotella denticola GAI 5490 by agar dilution method in presence of 5% laked sheep blood; assay type: functional
Capnocytophaga ochracea = assay: Antimicrobial activity against Capnocytophaga ochracea GAI 5586 by agar dilution method in presence of 5% laked sheep blood; assay type: functional
Prevotella intermedia = assay: Antimicrobial activity against Prevotella intermedia ATCC 25611 by agar dilution method in presence of 5% laked sheep blood; assay type: functional
Thomasclavelia ramosa = assay: Antimicrobial activity against Clostridium ramosum ATCC 25582 by agar dilution method in presence of 5% laked sheep blood; assay type: functional
[5] = test system: Limosilactobacillus reuteri; assay: Antimicrobial activity against Lactobacillus reuteri JCM 1112 by agar dilution method in presence of 5% laked sheep blood; assay type: functional
Prevotella bivia = assay: Antimicrobial activity against Prevotella bivia ATCC 29303 by agar dilution method in presence of 5% laked sheep blood; assay type: functional; conditions: DSM 20514
[6] = test system: Bacteroides thetaiotaomicron; assay: Antimicrobial activity against Bacteroides thetaiotaomicron ATCC 29741 by agar dilution method in presence of 5% laked sheep blood; assay type: functional
[7] = test system: Enterocloster clostridioformis; assay: Antimicrobial activity against Clostridium clostridioforme NCTC 11224 by agar dilution method in presence of 5% laked sheep blood; assay type: functional
Prevotella corporis = assay: Antimicrobial activity against Prevotella corporis GAI 91000 by agar dilution method in presence of 5% laked sheep blood; assay type: functional
Prevotella oris = assay: Antimicrobial activity against Prevotella oris ATCC 33573 by agar dilution method in presence of 5% laked sheep blood; assay type: functional; conditions: Segatella oris
Clostridium septicum = assay: Antimicrobial activity against Clostridium septicum ATCC 12464 by agar dilution method in presence of 5% laked sheep blood; assay type: functional
Schaalia odontolytica = assay: Antimicrobial activity against Actinomyces odontolyticus GAI 91002 by agar dilution method in presence of 5% laked sheep blood; assay type: functional
Bifidobacterium bifidum = assay: Antimicrobial activity against Bifidobacterium bifidum JCM 1255 by agar dilution method in presence of 5% laked sheep blood; assay type: functional
Lactobacillus salivarius = assay: Antimicrobial activity against Lactobacillus salivarius subsp. salivarius JCM 1231 by agar dilution method in presence of 5% laked sheep blood; assay type: functional; conditions: Ligilactobacillus salivarius
[8] = test system: Desulfovibrio desulfuricans; assay: Antimicrobial activity against Desulfovibrio desulfuricans ATCC 29577 by agar dilution method in presence of 5% laked sheep blood; assay type: functional
Gemella morbillorum = assay: Antimicrobial activity against Gemella morbillorum ATCC 27824 by agar dilution method in presence of 5% laked sheep blood; assay type: functional
Bifidobacterium breve = assay: Antimicrobial activity against Bifidobacterium breve ATCC 15700 by agar dilution method in presence of 5% laked sheep blood; assay type: functional
[9] = test system: Fusobacterium necrophorum; assay: Antimicrobial activity against Fusobacterium necrophorum ATCC 25286 by agar dilution method in presence of 5% laked sheep blood; assay type: functional
[10] = test system: Lactiplantibacillus plantarum; assay: Antimicrobial activity against Lactobacillus plantarum JCM 1149 by agar dilution method in presence of 5% laked sheep blood; assay type: functional
[11] = test system: Lactobacillus acidophilus; assay: Antimicrobial activity against Lactobacillus acidophilus JCM 1132 by agar dilution method in presence of 5% laked sheep blood; assay type: functional
[12] = test system: Streptococcus constellatus; assay: Antimicrobial activity against Streptococcus constellatus ATCC 27923 by agar dilution method in presence of 5% laked sheep blood; assay type: functional
Bacteroides ovatus = assay: Antimicrobial activity against Bacteroides ovatus ATCC 8483 by agar dilution method in presence of 5% laked sheep blood; assay type: functional
Campylobacter gracilis = assay: Antimicrobial activity against Campylobacter gracilis JCM 8538 by agar dilution method in presence of 5% laked sheep blood; assay type: functional
[13] = Antimicrobial activity against Bifidobacterium longum subsp. longum ATCC 15707 by agar dilution method in presence of 5% laked sheep blood; assay type: functional
[14] = test system: Campylobacter ureolyticus; assay: Antimicrobial activity against Bacteroides ureolyticus NCTC 10941 by agar dilution method in presence of 5% laked sheep blood; assay type: functional
Bilophila wadsworthia = assay: Antimicrobial activity against Bilophila wadsworthia WAL 7959 by agar dilution method in presence of 5% laked sheep blood; assay type: functional
Fusobacterium varium = assay: Antimicrobial activity against Fusobacterium varium ATCC 8501 by agar dilution method in presence of 5% laked sheep blood; assay type: functional
Clostridioides difficile = assay: Antimicrobial activity against Clostridium difficile GAI 10029 by agar dilution method in presence of 5% laked sheep blood; assay type: functional
Cutibacterium acnes = assay: Antimicrobial activity against Propionibacterium acnes ATCC 11828 by agar dilution method in presence of 5% laked sheep blood; assay type: functional
Veillonella parvula = assay: Antimicrobial activity against Veillonella parvula ATCC 10790 by agar dilution method in presence of 5% laked sheep blood; assay type: functional
Eggerthella lenta = assay: Antimicrobial activity against Eggerthella lenta ATCC 25559 by agar dilution method in presence of 5% laked sheep blood; assay type: functional
Bacteroides uniformis = assay: Antimicrobial activity against Bacteroides uniformis ATCC 8492 by agar dilution method in presence of 5% laked sheep blood; assay type: functional
[15] = Antimicrobial activity against Desulfovibrio piger DSM 749 by agar dilution method in presence of 5% laked sheep blood; assay type: functional, Desulfovibrio piger ATCC 29098
Hoylesella oralis = assay: Antimicrobial activity against Prevotella oralis ATCC 33269 by agar dilution method in presence of 5% laked sheep blood; assay type: functional
Bacteroides fragilis [16] = assay: Antimicrobial activity against Bacteroides fragilis NCTC 10581 by agar dilution method in presence of 5% laked sheep blood; assay type: functional
Bacteroides fragilis [17] = assay: Antimicrobial activity against Bacteroides fragilis GAI 7955 by agar dilution method in presence of 5% laked sheep blood; assay type: functional
Bacteroides fragilis [18] = assay: Antimicrobial activity against Bacteroides fragilis GAI 10150 by agar dilution method in presence of 5% laked sheep blood; assay type: functional
[19] = test system: Bacteroides eggerthii DSM 20697; assay: Antimicrobial activity against Bacteroides eggerthii ATCC 27754 by agar dilution method in presence of 5% laked sheep blood; assay type: functional
[20] = test system: Bacteroides heparinolyticus; assay: Antimicrobial activity against Prevotella heparinolytica ATCC 35895 by agar dilution method in presence of 5% laked sheep blood; assay type: functional
Bacteroides fragilis [21] = assay: Antimicrobial activity against Bacteroides fragilis GAI 0558 by agar dilution method in presence of 5% laked sheep blood; assay type: functional
[22] = test system: Propionibacterium granulosum; assay: Antimicrobial activity against Propionibacterium granulosum ATCC 25564 by agar dilution method in presence of 5% laked sheep blood; assay type: functional; conditions: Cutibacterium granulosum

`CC(=N)N1CC[C@H](SC2=C(C(=O)O)N3C(=O)[C@H]([C@@H](C)O)[C@H]3C2)C1` gave an MIC [1] of 0.25 µg/mL, an MIC (Parvimonas micra) of 0.125 µg/mL and an MIC (Lacticaseibacillus casei) of 0.5 µg/mL. It also gave an MIC [2] of 1 µg/mL, an MIC [3] of 0.03 µg/mL and an MIC (Bacteroides fragilis [4]) greater than 128 µg/mL. For the same molecule, the MIC (Prevotella denticola) was 0.06 µg/mL, the MIC (Capnocytophaga ochracea) was 0.125 µg/mL and the MIC (Prevotella intermedia) was 0.06 µg/mL. It also gave an MIC (Thomasclavelia ramosa) of 0.25 µg/mL, an MIC [5] of 0.03 µg/mL and an MIC (Prevotella bivia) of 0.5 µg/mL. It also gave an MIC [6] of 0.5 µg/mL, an MIC [7] of 0.25 µg/mL and an MIC (Prevotella corporis) of 0.125 µg/mL. For the same molecule, the MIC (Prevotella oris) was 0.06 µg/mL, the MIC (Clostridium septicum) was no more than 0.015 µg/mL and the MIC (Schaalia odontolytica) was 0.5 µg/mL. It also gave an MIC (Bifidobacterium bifidum) of 0.06 µg/mL, an MIC (Lactobacillus salivarius) of 0.25 µg/mL and an MIC [8] of 0.5 µg/mL. The MIC (Gemella morbillorum) was no more than 0.015 µg/mL, the MIC (Bifidobacterium breve) was 0.5 µg/mL and the MIC [9] was 0.125 µg/mL. It also gave an MIC [10] of 0.03 µg/mL, an MIC [11] of 0.25 µg/mL and an MIC [12] of 0.25 µg/mL. The MIC (Bacteroides ovatus) was 0.5 µg/mL, the MIC (Campylobacter gracilis) was 0.25 µg/mL and the MIC [13] was 1 µg/mL. For the same molecule, the MIC [14] was 0.25 µg/mL, the MIC (Bilophila wadsworthia) was 0.5 µg/mL and the MIC (Fusobacterium varium) was 4 µg/mL. The MIC (Clostridioides difficile) was 4 µg/mL, the MIC (Cutibacterium acnes) was 0.125 µg/mL and the MIC (Veillonella parvula) was 0.125 µg/mL. For the same molecule, the MIC (Eggerthella lenta) was 2 µg/mL, the MIC (Bacteroides uniformis) was 0.25 µg/mL and the MIC [15] was 0.125 µg/mL. For the same molecule, the MIC (Hoylesella oralis) was 0.06 µg/mL, the MIC (Bacteroides fragilis [16]) was 0.25 µg/mL and the MIC (Bacteroides fragilis [17]) was 4 µg/mL. The MIC (Bacteroides fragilis [18]) was 8 µg/mL, the MIC [19] was 0.25 µg/mL and the MIC [20] was 0.125 µg/mL. For the same molecule, the MIC (Bacteroides fragilis [21]) was 0.5 µg/mL and the MIC [22] was 0.125 µg/mL.

Molecule `CCC[C@@H]1C[C@@H](C(=O)N[C@@H]([C@H]2O[C@H](SC)[C@H](O)[C@@H](O)[C@H]2O)[C@H](C)Cl)N(C)C1` [CLINDAMYCIN] has an MIC [1] of 0.25 µg/mL, an MIC (Parvimonas micra) of 0.25 µg/mL and an MIC (Lacticaseibacillus casei) of 2 µg/mL. It also gave an MIC [2] of 0.06 µg/mL, an MIC [3] of 0.125 µg/mL and an MIC (Bacteroides fragilis [4]) of 2 µg/mL. For the same molecule, the MIC (Prevotella denticola) was no more than 0.03 µg/mL, the MIC (Capnocytophaga ochracea) was no more than 0.03 µg/mL and the MIC (Prevotella intermedia) was no more than 0.03 µg/mL. For the same molecule, the MIC (Thomasclavelia ramosa) was 8 µg/mL, the MIC [5] was no more than 0.03 µg/mL and the MIC (Prevotella bivia) was no more than 0.03 µg/mL. For the same molecule, the MIC [6] was 4 µg/mL, the MIC [7] was 0.25 µg/mL and the MIC (Prevotella corporis) was no more than 0.03 µg/mL. For the same molecule, the MIC (Prevotella oris) was no more than 0.03 µg/mL, the MIC (Clostridium septicum) was no more than 0.03 µg/mL and the MIC (Schaalia odontolytica) was 0.25 µg/mL. For the same molecule, the MIC (Bifidobacterium bifidum) was no more than 0.03 µg/mL, the MIC (Lactobacillus salivarius) was 0.06 µg/mL and the MIC [8] was 0.5 µg/mL. The MIC (Gemella morbillorum) was 0.06 µg/mL, the MIC (Bifidobacterium breve) was no more than 0.03 µg/mL and the MIC [9] was no more than 0.03 µg/mL. For the same molecule, the MIC [10] was 0.25 µg/mL, the MIC [11] was 1 µg/mL and the MIC [12] was 0.25 µg/mL. For the same molecule, the MIC (Bacteroides ovatus) was 0.5 µg/mL, the MIC (Campylobacter gracilis) was 0.125 µg/mL and the MIC [13] was no more than 0.03 µg/mL. It also gave an MIC [14] of 0.25 µg/mL, an MIC (Bilophila wadsworthia) of 0.5 µg/mL and an MIC (Fusobacterium varium) of 4 µg/mL. For the same molecule, the MIC (Clostridioides difficile) was greater than 128 µg/mL, the MIC (Cutibacterium acnes) was 0.125 µg/mL and the MIC (Veillonella parvula) was no more than 0.03 µg/mL. The MIC (Eggerthella lenta) was 0.25 µg/mL, the MIC (Bacteroides uniformis) was no more than 0.03 µg/mL and the MIC [15] was 0.06 µg/mL. It also gave an MIC (Hoylesella oralis) of no more than 0.03 µg/mL, an MIC (Bacteroides fragilis [16]) of no more than 0.03 µg/mL and an MIC (Bacteroides fragilis [17]) of 1 µg/mL. The MIC (Bacteroides fragilis [18]) was 0.5 µg/mL, the MIC [19] was no more than 0.03 µg/mL and the MIC [20] was no more than 0.03 µg/mL. It also gave an MIC (Bacteroides fragilis [21]) of 0.5 µg/mL and an MIC [22] of no more than 0.03 µg/mL.

— ChEMBL document CHEMBL1275576, “In vitro activity of tomopenem (CS-023/RO4908463) against anaerobic bacteria” (Antimicrob Agents Chemother, 2009)
